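How tested: cells in 96-well plates exposed to compound for 48 hours at five concentrations. GI50 marks 50% less growth. At the TGI there is no net growth.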
Legend:
Experiment in all cases: NCI anticancer screen, dose series, 48 h
786-0 renal = tested on: 786-0 renal
A498 renal = tested on: A498 renal
A549 NSCLC = tested on: A549 NSCLC
ACHN renal = tested on: ACHN renal
BT-549 breast = tested on: BT-549 breast
CAKI-1 renal = tested on: CAKI-1 renal
CCRF-CEM leukemia = tested on: CCRF-CEM leukemia
COLO 205 colon = tested on: COLO 205 colon
DU-145 prostate = tested on: DU-145 prostate
EKVX NSCLC = tested on: EKVX NSCLC
HCC-2998 colon = tested on: HCC-2998 colon
HCT-116 colon = tested on: HCT-116 colon
HCT-15 colon = tested on: HCT-15 colon
HL-60(TB) leukemia = tested on: HL-60(TB) leukemia
HOP-62 NSCLC = tested on: HOP-62 NSCLC
HOP-92 NSCLC = tested on: HOP-92 NSCLC
HS 578T breast = tested on: HS 578T breast
HT29 colon = tested on: HT29 colon
IGROV1 ovarian = tested on: IGROV1 ovarian
K-562 leukemia = tested on: K-562 leukemia
KM12 colon = tested on: KM12 colon
LOX IMVI melanoma = tested on: LOX IMVI melanoma
M14 melanoma = tested on: M14 melanoma
MALME-3M melanoma = tested on: MALME-3M melanoma
MCF7 breast = tested on: MCF7 breast
MDA-MB-231 breast = tested on: MDA-MB-231 breast
MDA-MB-435 = tested on: MDA-MB-435
MOLT-4 leukemia = tested on: MOLT-4 leukemia
NCI-H226 lung = tested on: NCI-H226 lung
NCI-H23 lung = tested on: NCI-H23 lung
NCI-H460 lung = tested on: NCI-H460 lung
NCI-H522 lung = tested on: NCI-H522 lung
NCI/ADR-RES ovarian = tested on: NCI/ADR-RES ovarian
OVCAR-3 ovarian = tested on: OVCAR-3 ovarian
OVCAR-4 ovarian = tested on: OVCAR-4 ovarian
OVCAR-5 ovarian = tested on: OVCAR-5 ovarian
OVCAR-8 ovarian = tested on: OVCAR-8 ovarian
PC-3 prostate = tested on: PC-3 prostate
RPMI-8226 leukemia = tested on: RPMI-8226 leukemia
RXF 393 renal = tested on: RXF 393 renal
SF-268 CNS = tested on: SF-268 CNS
SF-295 CNS = tested on: SF-295 CNS
SF-539 CNS = tested on: SF-539 CNS
SK-MEL-2 melanoma = tested on: SK-MEL-2 melanoma
SK-MEL-28 melanoma = tested on: SK-MEL-28 melanoma
SK-MEL-5 melanoma = tested on: SK-MEL-5 melanoma
SK-OV-3 ovarian = tested on: SK-OV-3 ovarian
SN12C renal = tested on: SN12C renal
SNB-19 CNS = tested on: SNB-19 CNS
SNB-75 CNS = tested on: SNB-75 CNS
SR leukemia = tested on: SR leukemia
SW-620 colon = tested on: SW-620 colon
T-47D breast = tested on: T-47D breast
TK-10 renal = tested on: TK-10 renal
U251 CNS = tested on: U251 CNS
UACC-257 melanoma = tested on: UACC-257 melanoma
UACC-62 melanoma = tested on: UACC-62 melanoma
UO-31 renal = tested on: UO-31 renal

## C=C1C(=O)O[C@H]2[C@H]1CC/C(COC(=O)C(=O)c1cn(C)c3ccc(Cl)cc13)=C\CC[C@@]1(C)O[C@@H]21
786-0 renal
  GI50: 1.2 µM
  TGI: 2.53 µM
A498 renal
  GI50: 2.17 µM
  TGI: 3.86 µM
A549 NSCLC
  GI50: 2.2 µM
  TGI: 4.82 µM
ACHN renal
  GI50: 1.07 µM
  TGI: 2.5 µM
BT-549 breast
  GI50: 0.234 µM
  TGI: 0.618 µM
CAKI-1 renal
  GI50: 1.71 µM
  TGI: 4.54 µM
CCRF-CEM leukemia
  GI50: 0.338 µM
  TGI: 10.9 µM
COLO 205 colon
  GI50: 1.96 µM
  TGI: 4.2 µM
DU-145 prostate
  GI50: 1.69 µM
  TGI: 3.63 µM
EKVX NSCLC
  GI50: 1.92 µM
  TGI: 4.29 µM
HCC-2998 colon
  GI50: 1.86 µM
  TGI: 3.52 µM
HCT-116 colon
  GI50: 1.24 µM
  TGI: 2.69 µM
HCT-15 colon
  GI50: 0.209 µM
  TGI: 0.5 µM
HL-60(TB) leukemia
  GI50: 1.25 µM
  TGI: 4.09 µM
HOP-62 NSCLC
  GI50: 1.33 µM
  TGI: 3.02 µM
HOP-92 NSCLC
  GI50: 1.72 µM
  TGI: 3.62 µM
HS 578T breast
  GI50: 3.14 µM
  TGI: 17.6 µM
HT29 colon
  GI50: 0.339 µM
  TGI: 1.19 µM
IGROV1 ovarian
  GI50: 1.17 µM
  TGI: 2.78 µM
K-562 leukemia
  GI50: 1.65 µM
  TGI: > 100 µM
KM12 colon
  GI50: 2.48 µM
  TGI: 7.46 µM
LOX IMVI melanoma
  GI50: 0.191 µM
  TGI: 0.387 µM
M14 melanoma
  GI50: 1.11 µM
  TGI: 2.74 µM
MALME-3M melanoma
  GI50: 1.74 µM
  TGI: 4.28 µM
MCF7 breast
  GI50: 0.391 µM
  TGI: 3.19 µM
MDA-MB-231 breast
  GI50: 1.03 µM
  TGI: 4.3 µM
MDA-MB-435
  GI50: 1.27 µM
  TGI: 3.13 µM
MOLT-4 leukemia
  GI50: 0.494 µM
  TGI: 4.17 µM
NCI-H226 lung
  GI50: 1.46 µM
  TGI: 3.08 µM
NCI-H23 lung
  GI50: 1.39 µM
  TGI: 3.05 µM
NCI-H460 lung
  GI50: 2.28 µM
  TGI: 6.75 µM
NCI-H522 lung
  GI50: 1.24 µM
  TGI: 2.68 µM
NCI/ADR-RES ovarian
  GI50: 1.45 µM
  TGI: 4.7 µM
OVCAR-3 ovarian
  GI50: 0.315 µM
  TGI: 1.03 µM
OVCAR-4 ovarian
  GI50: 2.26 µM
  TGI: 12.4 µM
OVCAR-5 ovarian
  GI50: 1.91 µM
  TGI: 5.82 µM
OVCAR-8 ovarian
  GI50: 2.1 µM
  TGI: 10.1 µM
PC-3 prostate
  GI50: 1.41 µM
  TGI: 3.32 µM
RPMI-8226 leukemia
  GI50: 0.306 µM
  TGI: 1.19 µM
RXF 393 renal
  GI50: 1.06 µM
  TGI: 2.33 µM
SF-268 CNS
  GI50: 1.56 µM
  TGI: 4.56 µM
SF-295 CNS
  GI50: 2.88 µM
  TGI: 10.3 µM
SF-539 CNS
  GI50: 1.66 µM
  TGI: 3.36 µM
SK-MEL-2 melanoma
  GI50: 1.39 µM
  TGI: 3.61 µM
SK-MEL-28 melanoma
  GI50: 1.49 µM
  TGI: 3.72 µM
SK-MEL-5 melanoma
  GI50: 1.55 µM
  TGI: 2.91 µM
SK-OV-3 ovarian
  GI50: 3.28 µM
SN12C renal
  GI50: 1.39 µM
  TGI: 4.71 µM
SNB-19 CNS
  GI50: 2.16 µM
  TGI: 6.13 µM
SNB-75 CNS
  GI50: 1.61 µM
  TGI: 3.8 µM
SR leukemia
  GI50: 0.3 µM
  TGI: 50 µM
SW-620 colon
  GI50: 0.857 µM
  TGI: 10.9 µM
T-47D breast
  GI50: 1.46 µM
  TGI: 3.27 µM
TK-10 renal
  GI50: 1.42 µM
  TGI: 2.98 µM
U251 CNS
  GI50: 1.79 µM
  TGI: 3.38 µM
UACC-257 melanoma
  GI50: 1.65 µM
  TGI: 3.55 µM
UACC-62 melanoma
  GI50: 0.356 µM
  TGI: 2.08 µM
UO-31 renal
  GI50: 0.817 µM
  TGI: 2.17 µM

## CCCN(CCC)c1ccc(/C=C/c2ccc3cc(OCC)ccc3n2)cc1
786-0 renal
  GI50: > 100 µM
  TGI: > 100 µM
A498 renal
  GI50: > 100 µM
  TGI: > 100 µM
A549 NSCLC
  GI50: 75.4 µM
  TGI: > 100 µM
ACHN renal
  GI50: 63.4 µM
  TGI: > 100 µM
BT-549 breast
  GI50: > 100 µM
  TGI: > 100 µM
CAKI-1 renal
  GI50: 73.3 µM
  TGI: > 100 µM
CCRF-CEM leukemia
  GI50: 54.3 µM
  TGI: > 100 µM
COLO 205 colon
  GI50: > 100 µM
  TGI: > 100 µM
DU-145 prostate
  GI50: > 100 µM
  TGI: > 100 µM
EKVX NSCLC
  GI50: 91.4 µM
  TGI: > 100 µM
HCC-2998 colon
  GI50: > 100 µM
  TGI: > 100 µM
HCT-116 colon
  GI50: 31.6 µM
  TGI: > 100 µM
HCT-15 colon
  GI50: 9.7 µM
  TGI: > 100 µM
HL-60(TB) leukemia
  GI50: 20.3 µM
  TGI: > 100 µM
HOP-62 NSCLC
  GI50: > 100 µM
  TGI: > 100 µM
HOP-92 NSCLC
  GI50: > 100 µM
  TGI: > 100 µM
HS 578T breast
  GI50: > 100 µM
  TGI: > 100 µM
HT29 colon
  GI50: 15 µM
  TGI: > 100 µM
IGROV1 ovarian
  GI50: > 100 µM
  TGI: > 100 µM
K-562 leukemia
  GI50: 9.37 µM
  TGI: > 100 µM
KM12 colon
  GI50: > 100 µM
  TGI: > 100 µM
LOX IMVI melanoma
  GI50: > 100 µM
  TGI: > 100 µM
M14 melanoma
  GI50: > 100 µM
  TGI: > 100 µM
MALME-3M melanoma
  GI50: > 100 µM
  TGI: > 100 µM
MCF7 breast
  GI50: > 100 µM
  TGI: > 100 µM
MDA-MB-231 breast
  GI50: > 100 µM
  TGI: > 100 µM
MDA-MB-435
  GI50: > 100 µM
  TGI: > 100 µM
MOLT-4 leukemia
  GI50: > 100 µM
  TGI: > 100 µM
NCI-H226 lung
  GI50: 58.6 µM
  TGI: > 100 µM
NCI-H23 lung
  GI50: 36.7 µM
  TGI: > 100 µM
NCI-H460 lung
  GI50: 63.2 µM
  TGI: > 100 µM
NCI-H522 lung
  GI50: 35.1 µM
  TGI: > 100 µM
NCI/ADR-RES ovarian
  GI50: > 100 µM
  TGI: > 100 µM
OVCAR-3 ovarian
  GI50: > 100 µM
  TGI: > 100 µM
OVCAR-4 ovarian
  GI50: 72.7 µM
  TGI: > 100 µM
OVCAR-5 ovarian
  GI50: > 100 µM
  TGI: > 100 µM
OVCAR-8 ovarian
  GI50: 99.2 µM
  TGI: > 100 µM
PC-3 prostate
  GI50: 56.3 µM
  TGI: > 100 µM
RPMI-8226 leukemia
  GI50: 6.29 µM
  TGI: > 100 µM
RXF 393 renal
  GI50: 5.23 µM
  TGI: 64.1 µM
SF-268 CNS
  GI50: > 100 µM
  TGI: > 100 µM
SF-295 CNS
  GI50: 22.7 µM
  TGI: > 100 µM
SF-539 CNS
  GI50: > 100 µM
  TGI: > 100 µM
SK-MEL-2 melanoma
  GI50: > 100 µM
  TGI: > 100 µM
SK-MEL-28 melanoma
  GI50: > 100 µM
  TGI: > 100 µM
SK-MEL-5 melanoma
  GI50: 23.6 µM
  TGI: > 100 µM
SK-OV-3 ovarian
  GI50: > 100 µM
  TGI: > 100 µM
SN12C renal
  GI50: > 100 µM
  TGI: > 100 µM
SNB-19 CNS
  GI50: > 100 µM
  TGI: > 100 µM
SNB-75 CNS
  GI50: 54.7 µM
  TGI: > 100 µM
SR leukemia
  GI50: 13.8 µM
  TGI: > 100 µM
SW-620 colon
  GI50: > 100 µM
  TGI: > 100 µM
T-47D breast
  GI50: 15.9 µM
  TGI: > 100 µM
TK-10 renal
  GI50: > 100 µM
  TGI: > 100 µM
U251 CNS
  GI50: 48.5 µM
  TGI: > 100 µM
UACC-257 melanoma
  GI50: > 100 µM
  TGI: > 100 µM
UACC-62 melanoma
  GI50: 72.8 µM
  TGI: > 100 µM
UO-31 renal
  GI50: > 100 µM
  TGI: > 100 µM

Source: PubChem BioAssay (NCI)
